# Reference: paper PMC12058161, “The plant matrix of Artemisia annua L. for the treatment of malaria: Pharmacodynamic and pharmacokinetic studies” (PLOS One, 2025)
# Several values for one entry are separate records, joined by “and”; a condition that tells them apart may be missing. Identical values can stand only once.
# Experiments:
# [1] = tested on: Plasmodium berghei (P. berghei); assay: Peters' four-day inhibition method, P. berghei murine malaria model; format: in vivo, ICR mice; details: individual mice
# Protocol: (§1) In vivo evaluation of antimalarial activity was performed using the classical Peters’ four-day inhibition method. A murine malaria model was constructed by intraperitoneal injection of 5.00 × 10^7 Plasmodium yoelii (P. yoelii)- or Plasmodium berghei (P. berghei)-infected erythrocytes. […] Mice were gavaged once 4 hours after infection with medicated soybean oil or the test drug (gavage standard was 0.20 mL/10 g), and the drug was administered orally for 4 consecutive days. Four hours after the last dose, blood was collected from the tail tip of the mice to make a thin blood smear. The smear was air-dried, fixed in methanol, stained with Giemsa for 30 minutes, then rinsed with distilled water, air-dried at room temperature, and visualized for malaria infection under a microscope (OLYMPUS BX43) at 100x oil immersion. The inhibition ratio (%) for each group was calculated using the following equations:
# (§2) Inhibitionratio(%)=(infectionratiocontrolgroup−infectionratiotreatmentgroup)/infectionratiocontrolgroup×100
# Caco-2 cell monolayers = assay: Bidirectional transport of ART across Caco-2 cell monolayers (LC-MS/MS); format: in vitro ADME, human; details: for transhipment of ART, AP-BL / transhipment of ART, Transepithelial transport in BL-to-AP: single replicate; for ART concentration per group, summary block: summary used for cumulative amount
# Source text: The human epithelial cell line Caco-2 serves as a widely recognized model for the intestinal epithelial barrier, frequently utilized in the assessment of drug absorption and transport mechanisms. In this study, we evaluated drug absorption and distribution in vitro with the help of the Caco-2 cell model. Caco-2 cells were purchased from the Chinese Academy of Medical Sciences (Beijing, China, Resource No. 3111C0001CCC000100). The cells were resuscitated and inserted into culture flasks. Caco-2 cells were passaged with DMEM high glucose medium containing 10% (V/V) FBS, 1% (V/V) non-essential amino acid solution and 100 U/mL penicillin-streptomycin double antibiotic solution, and cultured at 37°C in a 5% CO2 incubator. […] The integrity of the cell monolayer was checked by measuring the transmembrane electrical resistance (TEER) of the monolayer cells with a Millicell-ERS electrode (Millipore Corp., Billerica, MA, USA). Caco-2 cells were used for transport experiments 17-21 days after inoculation. Besides, only monolayers with TEER values above 400 Ω/cm^2 were used in the study. […] To prepare drug-treated Caco-2 cell monolayers, Caco-2 cells cultured in Transwell® inserts were aseptically treated on day 21 with 10 μM of […] and nACTs. […] The excitation wavelength was set at 485 nm, and the emission wavelength at 535 nm. […] The efflux ratio was calculated using the Papp (BL-AP) to Papp (AP-BL) ratio. […] The solvent gradient was 65%B-95%B for 0-5 min; 95%B for 5-6 min; and 35%B for 6-9 min.
# [2] = tested on: Plasmodium yoelii (P. yoelii); assay: Peters' four-day inhibition method, P. yoelii murine malaria model; format: in vivo, ICR mice; details: individual mice
# Protocol: as §1, §2
# [3] = Pharmacokinetic study in rats after oral administration (UHPLC-ESI-MS/MS of plasma); details: for half-life: male, Sprague Dawley, rat, in vivo, po
# Protocol: Blood samples were centrifuged at 3500 rpm for 5 min at 4°C. All plasma samples were then stored at -80°C until analysis.
# All samples were stored in a refrigerator at -80°C and thawed at room temperature before processing. A 50 μL aliquot of plasma was added with 5 μL of the standard solution (or acetonitrile) and 100 μL of internal standard solution in turn, vortexed and mixed, then sonicated for 3 min, centrifuged at 14000 rpm for 10 min at low temperature. The supernatant was transferred to an autosampler vial and analyzed by UHPLC-ESI-MS/MS.
# The mobile phase consisted of 0.1% formic acid solution (A) and acetonitrile (B).
# The ESI ionization source was used and detected in MRM mode.
# All data were presented as mean ± SD. Pharmacokinetic parameters including half-life (t1/2), maximum plasma time (Tmax) and concentration (Cmax), area under concentration-time curve (AUC0-t and AUC0-∞), clearance (CL), steady-state volume of distribution (Vz), and mean residence time (MRT) were analyzed by non-compartmental method using DAS Version 2.0 (Chinese Pharmacological Society, Beijing, China). […] The data were analyzed by Student’s t-test for two groups and one-way analysis of variance for multiple groups; p < 0.05 was considered statistically significant.
# P-glycoprotein (P-gp) = target: T1, P-glycoprotein (P-gp) (Homo sapiens, UniProt P08183); assay: Rhodamine 123 (P-gp substrate) transport across drug-treated Caco-2 cell monolayers; format: cell-based; details: co-incubated with R123, 10 μM, Caco-2 monolayer, Fig 6
# T1 construct: The transport of R123 in normal Caco-2 cell monolayers or drug-treated Caco-2 cell monolayers was further studied; host or cells: Caco-2
# T1 sequence (P08183 whole entry): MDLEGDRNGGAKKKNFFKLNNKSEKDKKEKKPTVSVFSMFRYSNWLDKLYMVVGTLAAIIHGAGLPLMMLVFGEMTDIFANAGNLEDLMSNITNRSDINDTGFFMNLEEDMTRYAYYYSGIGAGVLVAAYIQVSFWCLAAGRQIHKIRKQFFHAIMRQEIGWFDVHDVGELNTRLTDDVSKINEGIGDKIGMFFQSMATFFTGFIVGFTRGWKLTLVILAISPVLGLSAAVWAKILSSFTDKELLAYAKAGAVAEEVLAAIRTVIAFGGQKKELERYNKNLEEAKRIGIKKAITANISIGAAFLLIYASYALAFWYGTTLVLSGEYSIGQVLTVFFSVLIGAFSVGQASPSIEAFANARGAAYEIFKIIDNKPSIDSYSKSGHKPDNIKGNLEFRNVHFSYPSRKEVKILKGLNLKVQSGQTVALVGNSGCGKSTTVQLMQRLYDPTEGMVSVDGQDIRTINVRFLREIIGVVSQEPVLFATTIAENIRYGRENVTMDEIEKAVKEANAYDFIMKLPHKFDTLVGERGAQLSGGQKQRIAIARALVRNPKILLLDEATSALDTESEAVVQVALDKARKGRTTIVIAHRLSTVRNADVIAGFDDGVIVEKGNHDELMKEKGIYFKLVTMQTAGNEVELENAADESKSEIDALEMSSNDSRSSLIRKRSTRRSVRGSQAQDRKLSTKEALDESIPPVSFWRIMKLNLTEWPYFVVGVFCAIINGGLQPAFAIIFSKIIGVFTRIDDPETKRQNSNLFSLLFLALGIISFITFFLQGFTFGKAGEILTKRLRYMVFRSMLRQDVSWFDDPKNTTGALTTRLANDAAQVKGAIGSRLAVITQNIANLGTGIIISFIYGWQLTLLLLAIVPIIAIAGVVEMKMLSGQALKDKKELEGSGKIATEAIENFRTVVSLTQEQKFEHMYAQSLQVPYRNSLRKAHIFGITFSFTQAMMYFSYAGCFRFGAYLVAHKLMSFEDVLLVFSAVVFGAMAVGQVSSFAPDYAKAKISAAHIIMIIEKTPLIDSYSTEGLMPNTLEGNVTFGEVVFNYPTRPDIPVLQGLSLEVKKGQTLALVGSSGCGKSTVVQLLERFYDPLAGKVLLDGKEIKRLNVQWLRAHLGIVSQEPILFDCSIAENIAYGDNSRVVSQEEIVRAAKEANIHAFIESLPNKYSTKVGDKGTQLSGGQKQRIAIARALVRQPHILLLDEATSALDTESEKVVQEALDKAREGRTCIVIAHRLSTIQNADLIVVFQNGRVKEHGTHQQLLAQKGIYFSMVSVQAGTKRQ
# Source text: The human epithelial cell line Caco-2 serves as a widely recognized model for the intestinal epithelial barrier, frequently utilized in the assessment of drug absorption and transport mechanisms. In this study, we evaluated drug absorption and distribution in vitro with the help of the Caco-2 cell model. Caco-2 cells were purchased from the Chinese Academy of Medical Sciences (Beijing, China, Resource No. 3111C0001CCC000100). The cells were resuscitated and inserted into culture flasks. Caco-2 cells were passaged with DMEM high glucose medium containing 10% (V/V) FBS, 1% (V/V) non-essential amino acid solution and 100 U/mL penicillin-streptomycin double antibiotic solution, and cultured at 37°C in a 5% CO2 incubator. […] The integrity of the cell monolayer was checked by measuring the transmembrane electrical resistance (TEER) of the monolayer cells with a Millicell-ERS electrode (Millipore Corp., Billerica, MA, USA). Caco-2 cells were used for transport experiments 17–21 days after inoculation. Besides, only monolayers with TEER values above 400 Ω/cm^2 were used in the study.
# The transport of R123 in normal Caco-2 cell monolayers or drug-treated Caco-2 cell monolayers was further studied. […] The transport buffer containing 5 μM of R123 was added on either the AP or the BL side of the inserts, as described above. […] The concentrations of R123 were immediately analyzed by SpectraMax iD3. The excitation wavelength was set at 485 nm, and the emission wavelength at 535 nm. Papp values across the cell monolayers were calculated according to the equation: Papp = dQ/dt × 1/(A × C0), where dQ/dt represents the rate of drug transport. […] The efflux ratio was calculated using the Papp (BL-AP) to Papp (AP-BL) ratio.
# [4] = sample code A: apical(AP), 30 min
# [5] = sample code A: apical(AP), 60 min
# [6] = sample code A: apical(AP), 90 min
# [7] = sample code A: apical(AP), 120 min
# [8] = sample code A: apical(AP), 150 min
# [9] = sample code A: apical(AP), 180 min
# [10] = sample code B: basolateral (BL), 30 min
# [11] = sample code B: basolateral (BL), 60 min
# [12] = sample code B: basolateral (BL), 90 min
# [13] = sample code B: basolateral (BL), 120 min
# [14] = sample code B: basolateral (BL), 150 min
# [15] = sample code B: basolateral (BL), 180 min
smiles,measurement,setting,value
"C[C@@H]1CC[C@H]2[C@@H](C)C(=O)O[C@@H]3O[C@@]4(C)CC[C@@H]1[C@]32OO4 [ART, Artemisinin, reference compound]",parasitemia%,[1]; 5.68 mg/kg,73.4143% and 71.7174% and 72.6074% and 72.7168% and 72.6183%
same,parasitemia%,[1]; 11.368 mg/kg,41.4175% and 45.3752% and 36.8615% and 43.5062% and 35.724%
same,parasitemia%,[1]; 22.736 mg/kg,2.697% and 7.338% and 4.202% and 2.082% and 5.536%
same,"transhipment of ART, AP-BL",Caco-2 cell monolayers; 30 min,3.69 nmol and 3.84 nmol and 3.71 nmol
same,"transhipment of ART, AP-BL",Caco-2 cell monolayers; 60 min,5.02 nmol and 5.27 nmol and 5.14 nmol
same,"transhipment of ART, AP-BL",Caco-2 cell monolayers; 90 min,7.24 nmol and 7.11 nmol and 7.33 nmol
same,"transhipment of ART, AP-BL",Caco-2 cell monolayers; 120 min,8.97 nmol and 9.16 nmol and 9.09 nmol
same,"transhipment of ART, AP-BL",Caco-2 cell monolayers; 150 min,10.67 nmol and 10.60 nmol and 10.62 nmol
same,"transhipment of ART, AP-BL",Caco-2 cell monolayers; 180 min,11.97 nmol (2×) and 11.99 nmol
same,"transhipment of ART, Transepithelial transport in BL-to-AP",Caco-2 cell monolayers; 30 min,28.49 nmol and 28.67 nmol and 28.4 nmol
same,"transhipment of ART, Transepithelial transport in BL-to-AP",Caco-2 cell monolayers; 60 min,55.39 nmol and 55.5 nmol and 55.82 nmol
same,"transhipment of ART, Transepithelial transport in BL-to-AP",Caco-2 cell monolayers; 90 min,69.96 nmol and 69.87 nmol and 69.99 nmol
same,"transhipment of ART, Transepithelial transport in BL-to-AP",Caco-2 cell monolayers; 120 min,90.64 nmol and 90.48 nmol and 90.67 nmol
same,"transhipment of ART, Transepithelial transport in BL-to-AP",Caco-2 cell monolayers; 150 min,106.51 nmol and 106.61 nmol and 106.74 nmol
same,"transhipment of ART, Transepithelial transport in BL-to-AP",Caco-2 cell monolayers; 180 min,124.37 nmol and 124.58 nmol and 124.56 nmol
same,"ART original concentration, single replicate",Caco-2 cell monolayers; [4],786.91 ng/mL and 1910.44 ng/mL and 2313.90 ng/mL
same,"ART original concentration, column mean",Caco-2 cell monolayers; [4],2112.17 ng/mL
same,"ART concentration per group, summary block",Caco-2 cell monolayers; [4],2112.17 ng/mL
same,"ART original concentration, single replicate",Caco-2 cell monolayers; [5],2149.07 ng/mL and 2049.02 ng/mL and 3232.78 ng/mL
same,"ART original concentration, column mean",Caco-2 cell monolayers; [5],2640.90 ng/mL
same,"ART concentration per group, summary block",Caco-2 cell monolayers; [5],2476.96 ng/mL
same,"ART original concentration, single replicate",Caco-2 cell monolayers; [6],2915.94 ng/mL and 2813.25 ng/mL and 3472.39 ng/mL
same,"ART original concentration, column mean",Caco-2 cell monolayers; [6],3142.82 ng/mL
same,"ART concentration per group, summary block",Caco-2 cell monolayers; [6],3067.20 ng/mL
same,"ART original concentration, single replicate",Caco-2 cell monolayers; [7],3594.17 ng/mL and 3318.58 ng/mL and 3006.12 ng/mL
same,"ART original concentration, column mean",Caco-2 cell monolayers; [7],3162.35 ng/mL
same,"ART concentration per group, summary block",Caco-2 cell monolayers; [7],3306.29 ng/mL
same,"ART original concentration, single replicate",Caco-2 cell monolayers; [8],3213.69 ng/mL and 2917.70 ng/mL and 3363.12 ng/mL
same,"ART original concentration, column mean",Caco-2 cell monolayers; [8],3140.41 ng/mL
same,"ART concentration per group, summary block",Caco-2 cell monolayers; [8],3164.84 ng/mL
same,"ART original concentration, single replicate",Caco-2 cell monolayers; [9],2674.58 ng/mL and 2920.77 ng/mL and 2532.18 ng/mL
same,"ART original concentration, column mean",Caco-2 cell monolayers; [9],2726.47 ng/mL
same,"ART concentration per group, summary block",Caco-2 cell monolayers; [9],2709.18 ng/mL
same,"ART original concentration, single replicate",Caco-2 cell monolayers; [10],5260.58 ng/mL and 5169.96 ng/mL and 5652.08 ng/mL
same,"ART concentration per group, summary block",Caco-2 cell monolayers; [10],5360.87 ng/mL
same,"ART original concentration, single replicate",Caco-2 cell monolayers; [11],8719.34 ng/mL and 7267.89 ng/mL and 12129.77 ng/mL
same,"ART original concentration, column mean",Caco-2 cell monolayers; [11],9698.83 ng/mL
same,"ART concentration per group, summary block",Caco-2 cell monolayers; [11],9372.33 ng/mL
same,"ART original concentration, single replicate",Caco-2 cell monolayers; [12],9503.98 ng/mL and 6910.68 ng/mL and 13549.62 ng/mL
same,"ART original concentration, column mean",Caco-2 cell monolayers; [12],10230.15 ng/mL
same,"ART concentration per group, summary block",Caco-2 cell monolayers; [12],9988.09 ng/mL
same,"ART original concentration, single replicate",Caco-2 cell monolayers; [13],10562.24 ng/mL and 7482.04 ng/mL and 15676.89 ng/mL
same,"ART original concentration, column mean",Caco-2 cell monolayers; [13],11579.46 ng/mL
same,"ART concentration per group, summary block",Caco-2 cell monolayers; [13],11240.39 ng/mL
same,"ART original concentration, single replicate",Caco-2 cell monolayers; [14],9970.47 ng/mL and 7130.75 ng/mL and 15441.45 ng/mL
same,"ART original concentration, column mean",Caco-2 cell monolayers; [14],11286.10 ng/mL
same,"ART concentration per group, summary block",Caco-2 cell monolayers; [14],10847.56 ng/mL
same,"ART original concentration, single replicate",Caco-2 cell monolayers; [15],7047.15 ng/mL and 14960.70 ng/mL and 8594.06 ng/mL
same,"ART original concentration, column mean",Caco-2 cell monolayers; [15],11777.38 ng/mL
same,"ART concentration per group, summary block",Caco-2 cell monolayers; [15],10200.64 ng/mL
same,parasitemia%,[2]; 5.68 mg/kg,70.2912% and 67.0337% and 68.4147% and 69.5326% and 69.0526%
same,parasitemia%,[2]; 11.368 mg/kg,34.1852% and 49.4174% and 42.0754% and 41.1875% and 34.5379%
same,parasitemia%,[2]; 22.736 mg/kg,1.979% and 6.804% and 2.98% and 0.248% and 3.003%
same,half-life,"[3]; 100 mg/kg, t1/2, rat plasma, ART after gavage of pure ART (PU) 100 mg/kg, n = 6",1.1 ± 0.335 h
same,half-life,"[3]; 100 mg/kg, t1/2z, pure artemisinin, rat plasma, DAS 2.0, Mean of 6 rats",1.1 h
same,half-life,"[3]; 352 mg/kg, t1/2, rat plasma, component after gavage of nACTs 352 mg/kg, n = 6",1.76 ± 0.938 h
same,Cz(尾点回归值),"[3]; pure artemisinin, rat plasma, DAS 2.0, individual rats No1-No6",14.237 mg/L
"C[C@@H]1CC[C@H]2[C@@H](C)C(=O)O[C@@H]3O[C@@]4(C)CC[C@@H]1[C@]32O4 [DEART, Deoxyartemisinin]",reduction of R123 transport from the BL side to the AP side,P-glycoprotein (P-gp),22.40%
